In BindingDB's records for doi:10.1016/s0960-894x(01)00096-8 (Seoul National University, 2001):

Target: Methionine--tRNA ligase (Escherichia coli) (UniProt P00959)
Assay: Inhibitory concentration against methionyl-tRNA synthetase was determined by measuring decrease of the aminoacylation product [35S]- methionyl tRNA of Escherichia coli

Chain of Methionine--tRNA ligase (Escherichia coli) (P00959 whole entry, looked up): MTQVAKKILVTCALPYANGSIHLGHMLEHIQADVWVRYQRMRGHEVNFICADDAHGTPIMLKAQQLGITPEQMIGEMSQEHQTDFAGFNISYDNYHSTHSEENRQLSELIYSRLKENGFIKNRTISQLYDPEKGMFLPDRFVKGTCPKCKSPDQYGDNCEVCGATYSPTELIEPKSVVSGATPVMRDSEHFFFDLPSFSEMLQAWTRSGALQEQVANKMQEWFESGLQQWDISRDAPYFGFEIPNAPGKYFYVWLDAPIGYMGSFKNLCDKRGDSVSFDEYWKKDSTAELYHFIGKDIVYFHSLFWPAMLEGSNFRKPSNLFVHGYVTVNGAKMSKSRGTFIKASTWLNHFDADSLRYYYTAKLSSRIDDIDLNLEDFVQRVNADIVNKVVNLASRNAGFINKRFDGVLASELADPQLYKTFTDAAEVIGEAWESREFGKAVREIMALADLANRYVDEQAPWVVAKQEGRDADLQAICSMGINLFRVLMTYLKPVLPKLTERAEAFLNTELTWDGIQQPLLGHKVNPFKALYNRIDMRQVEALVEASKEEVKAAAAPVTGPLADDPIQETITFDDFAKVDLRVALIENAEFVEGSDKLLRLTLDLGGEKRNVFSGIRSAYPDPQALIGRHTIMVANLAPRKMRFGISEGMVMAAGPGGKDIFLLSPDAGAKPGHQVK

SMILES | IC50 [µM]
COc1ccc(CC(=O)N(O)CCOC(=O)[C@@H](N)CCSC)cc1O [(S)-1-(2-{Hydroxy-[2-(3-hydroxy-4-methoxy-phenyl)-acetyl]-amino}-ethoxycarbonyl)-3-methylsulfanyl-propyl-ammonium] | 87
COc1cc(CC(=O)N(O)CCOC(=O)[C@@H](N)CCSC)ccc1O [(S)-1-(2-{Hydroxy-[2-(4-hydroxy-3-methoxy-phenyl)-acetyl]-amino}-ethoxycarbonyl)-3-methylsulfanyl-propyl-ammonium] | 128
COc1ccc(C(=O)NCCOC(=O)[C@@H](N)CCSC)cc1O [(S)-1-[2-(3-Hydroxy-4-methoxy-benzoylamino)-ethoxycarbonyl]-3-methylsulfanyl-propyl-ammonium] | 78
COc1cc(C(=O)NCCOC(=O)[C@@H](N)CCSC)ccc1O [(S)-1-[2-(4-Hydroxy-3-methoxy-benzoylamino)-ethoxycarbonyl]-3-methylsulfanyl-propyl-ammonium] | 60
COc1ccc(C2=NOC(COC(=O)[C@@H](N)CCSC)C2)cc1O (stereo partly drawn) [(S)-1-[3-(3-Hydroxy-4-methoxy-phenyl)-4,5-dihydro-isoxazol-5-ylmethoxycarbonyl]-3-methylsulfanyl-propyl-ammonium] | 47
COc1cc(C2=NOC(COC(=O)[C@@H](N)CCSC)C2)ccc1O (stereo partly drawn) [(S)-1-[3-(4-Hydroxy-3-methoxy-phenyl)-4,5-dihydro-isoxazol-5-ylmethoxycarbonyl]-3-methylsulfanyl-propyl-ammonium] | 58
COc1cc(C2=N[C@H](COC(=O)[C@@H](N)CCSC)CO2)ccc1O [(S)-1-[(S)-2-(4-Hydroxy-3-methoxy-phenyl)-4,5-dihydro-oxazol-4-ylmethoxycarbonyl]-3-methylsulfanyl-propyl-ammonium] | 33.5
COc1ccc(CC(=O)NCCOC(=O)[C@@H](N)CCSC)cc1O [(S)-1-{2-[2-(3-Hydroxy-4-methoxy-phenyl)-acetylamino]-ethoxycarbonyl}-3-methylsulfanyl-propyl-ammonium] | 164
COc1cc(CC(=O)NCCOC(=O)[C@@H](N)CCSC)ccc1O [(S)-1-{2-[2-(4-Hydroxy-3-methoxy-phenyl)-acetylamino]-ethoxycarbonyl}-3-methylsulfanyl-propyl-ammonium] | 94
COc1ccc(C(=O)N(O)CCOC(=O)[C@@H](N)CCSC)cc1O [(S)-1-{2-[Hydroxy-(3-hydroxy-4-methoxy-benzoyl)-amino]-ethoxycarbonyl}-3-methylsulfanyl-propyl-ammonium] | 72
COc1cc(C(=O)N(O)CCOC(=O)[C@@H](N)CCSC)ccc1O [(S)-1-{2-[Hydroxy-(4-hydroxy-3-methoxy-benzoyl)-amino]-ethoxycarbonyl}-3-methylsulfanyl-propyl-ammonium] | 32.5

Target: not listed separately
Assay: as above

SMILES | IC50 [µM]
COc1cc(C2=N[C@@H](COC(=O)[C@@H](N)CCSC)CO2)ccc1O [(S)-1-[(R)-2-(4-Hydroxy-3-methoxy-phenyl)-4,5-dihydro-oxazol-4-ylmethoxycarbonyl]-3-methylsulfanyl-propyl-ammonium] | 39

Target: Isoleucine--tRNA ligase (Escherichia coli) (UniProt P00956)
Assay: Inhibitory concentration against isoleucyl-tRNA synthetase was determined by measuring decrease of the aminoacylation product [3H]- isoleucyl tRNA of Escherichia coli

Chain of Isoleucine--tRNA ligase (Escherichia coli) (P00956 whole entry, looked up): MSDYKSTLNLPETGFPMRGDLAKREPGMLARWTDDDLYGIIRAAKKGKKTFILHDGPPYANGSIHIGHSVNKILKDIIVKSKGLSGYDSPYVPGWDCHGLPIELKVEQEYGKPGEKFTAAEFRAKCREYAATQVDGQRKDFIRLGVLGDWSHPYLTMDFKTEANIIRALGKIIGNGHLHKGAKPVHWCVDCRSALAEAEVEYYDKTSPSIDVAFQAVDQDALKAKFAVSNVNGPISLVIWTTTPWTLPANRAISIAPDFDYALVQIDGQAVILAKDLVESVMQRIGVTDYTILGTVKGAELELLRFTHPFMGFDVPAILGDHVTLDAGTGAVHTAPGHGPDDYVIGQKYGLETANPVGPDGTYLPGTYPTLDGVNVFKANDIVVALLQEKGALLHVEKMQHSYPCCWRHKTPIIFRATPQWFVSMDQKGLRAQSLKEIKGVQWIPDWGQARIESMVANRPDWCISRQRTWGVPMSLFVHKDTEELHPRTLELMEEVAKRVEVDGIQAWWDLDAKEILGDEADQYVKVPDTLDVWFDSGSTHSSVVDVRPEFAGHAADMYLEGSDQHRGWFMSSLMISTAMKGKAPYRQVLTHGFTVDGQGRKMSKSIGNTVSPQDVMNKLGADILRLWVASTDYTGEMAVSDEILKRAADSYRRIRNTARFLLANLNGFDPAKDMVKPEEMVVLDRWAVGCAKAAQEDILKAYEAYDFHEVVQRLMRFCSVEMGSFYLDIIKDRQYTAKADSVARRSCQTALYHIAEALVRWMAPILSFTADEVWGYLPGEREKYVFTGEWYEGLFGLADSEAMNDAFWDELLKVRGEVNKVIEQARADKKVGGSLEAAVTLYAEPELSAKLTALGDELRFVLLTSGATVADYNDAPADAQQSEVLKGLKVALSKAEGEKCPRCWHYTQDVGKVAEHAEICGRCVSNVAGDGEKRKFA

SMILES | IC50 [µM]
CCC(C)[C@H](N)C(=O)OC[C@H]1COC(c2ccc(O)c(OC)c2)=N1 (stereo partly drawn) [(S)-1-[(R)-2-(4-Hydroxy-3-methoxy-phenyl)-4,5-dihydro-oxazol-4-ylmethoxycarbonyl]-2-methyl-butyl-ammonium] | 50

Target: Isoleucine--tRNA ligase (Escherichia coli) (UniProt P00956)
Assay: as above
Remark: another data set of the same source

SMILES | IC50 [µM]
CCC(C)[C@H](N)C(=O)OCCN(O)C(=O)Cc1ccc(OC)c(O)c1 (stereo partly drawn) [(S)-1-(2-{Hydroxy-[2-(3-hydroxy-4-methoxy-phenyl)-acetyl]-amino}-ethoxycarbonyl)-2-methyl-butyl-ammonium] | 21
CCC(C)[C@H](N)C(=O)OCCN(O)C(=O)Cc1ccc(O)c(OC)c1 (stereo partly drawn) [(S)-1-(2-{Hydroxy-[2-(4-hydroxy-3-methoxy-phenyl)-acetyl]-amino}-ethoxycarbonyl)-2-methyl-butyl-ammonium] | 228
CCC(C)[C@H](N)C(=O)OCCNC(=O)c1ccc(OC)c(O)c1 (stereo partly drawn) [(S)-1-[2-(3-Hydroxy-4-methoxy-benzoylamino)-ethoxycarbonyl]-2-methyl-butyl-ammonium] | 106
CCC(C)[C@H](N)C(=O)OCCNC(=O)c1ccc(O)c(OC)c1 (stereo partly drawn) [(S)-1-[2-(4-Hydroxy-3-methoxy-benzoylamino)-ethoxycarbonyl]-2-methyl-butyl-ammonium] | 64.4
CCC(C)[C@H](N)C(=O)OCC1CC(c2ccc(OC)c(O)c2)=NO1 (stereo partly drawn) [(S)-1-[3-(3-Hydroxy-4-methoxy-phenyl)-4,5-dihydro-isoxazol-5-ylmethoxycarbonyl]-2-methyl-butyl-ammonium] | 57.6
CCC(C)[C@H](N)C(=O)OCC1CC(c2ccc(O)c(OC)c2)=NO1 (stereo partly drawn) [(S)-1-[3-(4-Hydroxy-3-methoxy-phenyl)-4,5-dihydro-isoxazol-5-ylmethoxycarbonyl]-2-methyl-butyl-ammonium] | 79
CCC(C)[C@H](N)C(=O)OC[C@@H]1COC(c2ccc(O)c(OC)c2)=N1 (stereo partly drawn) [(S)-1-[(S)-2-(4-Hydroxy-3-methoxy-phenyl)-4,5-dihydro-oxazol-4-ylmethoxycarbonyl]-2-methyl-butyl-ammonium] | 38.6
CCC(C)[C@H](N)C(=O)OCCNC(=O)Cc1ccc(OC)c(O)c1 (stereo partly drawn) [(S)-1-{2-[2-(3-Hydroxy-4-methoxy-phenyl)-acetylamino]-ethoxycarbonyl}-2-methyl-butyl-ammonium] | 56.5
CCC(C)[C@H](N)C(=O)OCCNC(=O)Cc1ccc(O)c(OC)c1 (stereo partly drawn) [(S)-1-{2-[2-(4-Hydroxy-3-methoxy-phenyl)-acetylamino]-ethoxycarbonyl}-2-methyl-butyl-ammonium] | 45
CCC(C)[C@H](N)C(=O)OCCN(O)C(=O)c1ccc(OC)c(O)c1 (stereo partly drawn) [(S)-1-{2-[Hydroxy-(3-hydroxy-4-methoxy-benzoyl)-amino]-ethoxycarbonyl}-2-methyl-butyl-ammonium] | 4.5
CCC(C)[C@H](N)C(=O)OCCN(O)C(=O)c1ccc(O)c(OC)c1 (stereo partly drawn) [(S)-1-{2-[Hydroxy-(4-hydroxy-3-methoxy-benzoyl)-amino]-ethoxycarbonyl}-2-methyl-butyl-ammonium] | 12.8
